From paper PMC12105704 (2025)
Values belong to the compound of their own block, whether it stands above or below them.

What was measured:
[1] = system: Tte PreQ1 RNA (unlabeled) (RNA, riboswitch) CUGGGUCGCAGUAACCCCAGUUAACAAAACAAG; test: competition with CNV photocrosslinking, PAGE; conditions: PreQ1 folding buffer: 100 mM KCl, 1 mM MgCl2; PreQ1 0X-10X; dose-dependent inhibition of CNV crosslinking
[2] = system: Ssa-PreQ1 RNA (RNA, riboswitch) AGAGGUUCCUAGCUGAUACCCUCUAUAAAAAACUA; test: competition with bio-CNV photocrosslinking, pull-down, RNAseq; conditions: PreQ1 folding buffer: 100 mM KCl, 1 mM MgCl2; 1 µM aptamer in MCF7 total RNA, 250 µM bio-CNV, 500 µM PreQ1; enrichment abolished
[3] = system: Ssa-PreQ1 RNA (RNA, riboswitch) AGAGGUUCCUAGCUGAUACCCUCUAUAAAAAACUA; test: photocrosslinking, streptavidin pull-down, PAGE; conditions: PreQ1 folding buffer: 100 mM KCl, 1 mM MgCl2; covalent; 50 µM RNA, 75 µM bio-CNV, 35 min; also pulled down from MCF7 total RNA
[4] = system: Ssa-PreQ1 RNA (RNA, riboswitch) AGAGGUUCCUAGCUGAUACCCUCUAUAAAAAACUA; test: photocrosslinking, PAGE gel shift; conditions: PreQ1 folding buffer: 100 mM KCl, 1 mM MgCl2, covalent, 50 µM RNA, 75 µM compound, 365 nm 35 min
[5] = system: Tte PreQ1 RNA (unlabeled) (RNA, riboswitch) CUGGGUCGCAGUAACCCCAGUUAACAAAACAAG; test: photocrosslinking, denaturing PAGE and fluorescence; conditions: PreQ1 folding buffer: 100 mM KCl, 1 mM MgCl2; covalent; 50 µM RNA, 75 µM CNV, 365 nm; 15% crosslinked at 35 min
[6] = system: Oih PreQ1 aptamer (RNA, riboswitch) AGAGGUUCUUAGCUUCAACCCUCUAUAAAAAACUAA; test: photocrosslinking, PAGE gel shift and MALDI-TOF; conditions: PreQ1 folding buffer: 100 mM KCl, 1 mM MgCl2; covalent; 50 µM RNA, 75 µM CNV, 365 nm 35 min, RT
[7] = system: Cy5-labelled Tte PreQ1 RNA (RNA, riboswitch) CUGGGUCGCAGUAACCCCAGUUAACAAAACAAG; test: microscale thermophoresis; conditions: 100 mM KCl, 1 mM MgCl2; 50 mM Tris pH 7.5, 5% DMSO, RT; irradiated 365 nm 35 min before MST, covalent, apparent
[8] = system: Gth PreQ1 aptamer (RNA, riboswitch) AGAGGUUUCUAGCAAAACCCUCUAUAAAAAACUA; test: photocrosslinking, PAGE gel shift and MALDI-TOF; conditions: PreQ1 folding buffer: 100 mM KCl, 1 mM MgCl2; covalent; 50 µM RNA, 75 µM CNV, 365 nm 35 min, RT
[9] = system: Bpu PreQ1 aptamer (RNA, riboswitch) AGAGGUUCUAGCAAAACCCUCUAUAAAAAACUAA; test: photocrosslinking, PAGE gel shift and MALDI-TOF; conditions: PreQ1 folding buffer: 100 mM KCl, 1 mM MgCl2; covalent; 50 µM RNA, 75 µM CNV, 365 nm 35 min, RT
[10] = system: Bsu PreQ1 aptamer (RNA, riboswitch) AGAGGUUCUAGCUACACCCUCUAUAAAAAACUAA; test: photocrosslinking, PAGE gel shift and MALDI-TOF; conditions: PreQ1 folding buffer: 100 mM KCl, 1 mM MgCl2; covalent; 50 µM RNA, 75 µM CNV, 365 nm 35 min, RT

binding [1]: yes | binding [2]: yes
Structure (SMILES): NCc1c[nH]c2nc(N)[nH]c(=O)c12

binding [3]: yes
Structure (SMILES): N#C/C=C/c1ccc2[nH]c3ccc(CCCOC(=O)CCCc4cn(CCOCCOCCOCCNC(=O)CCCC[C@@H]5SC[C@@H]6NC(=O)N[C@@H]65)nn4)cc3c2c1

binding ([4]; minimal uncaging at 302 nm): yes
Structure (SMILES): N#C/C=C/c1ccc2[nH]c3ccncc3c2c1

binding [5]: yes | binding [6]: yes | KD [7]: 0.4 ± 0.2 µM | binding [8]: yes | binding [9]: yes | binding [10]: yes | binding ([4]; reversed at 302 nm): yes
Structure (SMILES): N#C/C=C/c1ccc2[nH]c3ccccc3c2c1

binding ([4]; minimal uncaging at 302 nm): yes
Structure (SMILES): N#C/C=C/c1ccc2[nH]c3cccnc3c2c1
